Assay results: patent publication US11168102B1, “Bicyclic heteroaryl compounds and uses thereof” (Revolution Medicines, Inc., priority 2019, dated 2021)
Where two headings read alike, the source gives them in different places.

Key:
[1] = biological target: SOS1 catalytic domain (residues 564-1049) (Homo sapiens (Human), UniProt Q07889); test: Potency assay: binding affinity to SOS1 by Surface Plasmon Resonance (SPR); settings: avi-tagged SOS1 catalytic domain immobilized on sensor chip; 1:1 equilibrium binding fit
[2] = biological target: SOS1 nucleotide exchange of wild-type KRAS (Homo sapiens (Human), UniProt Q07889); test: Mode of action assay: inhibition of SOS1 nucleotide exchange activity (TR-FRET); type: biochemical; settings: SOS1 catalytic domain (564-1049), avi-tagged KRAS (1-169), EDA-GTP-DY-647P1; three replicates
[3] = system: cellular pERK in PC-9 cells (EGFR Ex19Del); test: Potency assay: pERK (AlphaLISA SureFire Ultra p-ERK1/2) in PC-9 cells; type: cell-based; settings: PC-9 cells (EGFR Ex19Del), 1 hour incubation, AlphaLISA SureFire Ultra p-ERK1/2, read-out: SOS1 pERK IC50

SOS1 catalytic domain (residues 564-1049), sequence (Q07889 564-1049): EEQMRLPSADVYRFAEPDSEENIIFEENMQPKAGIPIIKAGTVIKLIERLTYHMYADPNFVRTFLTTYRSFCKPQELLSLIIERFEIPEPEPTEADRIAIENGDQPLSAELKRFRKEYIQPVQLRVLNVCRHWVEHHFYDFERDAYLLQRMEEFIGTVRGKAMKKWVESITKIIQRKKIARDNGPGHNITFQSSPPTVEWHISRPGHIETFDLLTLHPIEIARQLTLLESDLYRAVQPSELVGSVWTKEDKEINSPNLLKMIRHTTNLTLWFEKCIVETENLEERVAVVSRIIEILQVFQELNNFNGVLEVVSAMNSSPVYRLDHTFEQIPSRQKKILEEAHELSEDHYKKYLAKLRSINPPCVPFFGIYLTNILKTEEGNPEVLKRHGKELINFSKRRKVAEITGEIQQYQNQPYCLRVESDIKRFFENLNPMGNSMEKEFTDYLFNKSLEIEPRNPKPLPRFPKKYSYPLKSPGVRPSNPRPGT
SOS1 nucleotide exchange of wild-type KRAS, sequence (Q07889 564-1049): as above

Cc1nc(N[C@H](C)c2cccc(C(F)F)c2F)c2cc(C3=CCCOC3)c(=O)n(CCO)c2n1 [Example 11-1] was tested, and the Kd [1] was 81.3 nM.
C[C@@H](Nc1ncnc2c1cc(C1CCN(CCF)CC1)c(=O)n2C)c1cccc(C(F)F)c1F [Example 8-4] showed a Kd [1] of 29.4 nM and an IC50 [2] of 7.66 nM.
C[C@@H](Nc1ncnc2c1cc(C1CCN(C3COC3)CC1)c(=O)n2C)c1cccc(C(F)F)c1F [Example 8-8] showed a Kd [1] of 62 nM and an IC50 [2] of 30.5 nM.
Cc1nc(N[C@H](C)c2cccc(C(F)F)c2F)c2cc(N3CC(F)(F)C3)c(=O)n(C)c2n1 [Example 2-2] was tested, and the IC50 ([3]; Homo sapiens, PC-9, 1 h) was 427 nM and the IC50 [2] was 2080 nM.
Cc1nc(N[C@H](C)c2cccc(C(F)F)c2F)c2cc(C3CCN(C4COC4)CC3)c(=O)n(C)c2n1 [Example 8-14] showed a Kd [1] of 200 nM and an IC50 [2] of 81.2 nM.
For Cc1nc(N[C@H](C)c2cccc(C(F)F)c2F)c2cc(-c3cncnc3)c(=O)n(C)c2n1 [Example 21-4], the Kd [1] was 272 nM and the IC50 [2] was 172 nM.
Compound C[C@@H](Nc1ncnc2c1cc(-c1ccc[nH]1)c(=O)n2C)c1cccc(C(F)F)c1F [Example 21-1] has a Kd [1] of 1160 nM and an IC50 [2] of 1070 nM.
Compound C[C@@H](Nc1ncnc2c1cc(-c1ccccc1C#N)c(=O)n2C)c1cccc(C(F)F)c1F [Example 21-6] has a Kd [1] of 118 nM and an IC50 [2] of 86.4 nM.
With Cc1nc(N[C@H](C)c2cccc(C(F)F)c2F)c2cc(-c3ccnnc3)c(=O)n(C)c2n1 [Example 21-3] the Kd [1] was 330 nM and the IC50 [2] was 120 nM.
For Cc1nc(N[C@H](C)c2cccc(C(F)F)c2F)c2cc(N3CC4(COC4)C3)c(=O)n(C)c2n1 [Example 2-3], the IC50 ([3]; Homo sapiens, PC-9, 1 h) was 188 nM and the Kd [1] was 89 nM.
For COc1ccc(Cc2cc3c(N[C@H](C)c4cccc(C(F)F)c4F)nc(C)nc3n(C)c2=O)cc1OC [Example 20-1], the IC50 [2] was 6170 nM.
C[C@@H](Nc1ncnc2c1cc(C1(C#N)CCS(=O)(=NC3CC3)CC1)c(=O)n2C)c1cccc(C(F)F)c1F (stereo partly drawn) [Example 59, (1S,4s)-1-(cyclopropylimino)-4-(4-(((R)-1-(3-(difluoromethyl)-2-fluorophenyl)ethyl)amino)-8-methyl-7-oxo-7,8-dihydropyrido[2,3-d]pyrimidin-6-yl)hexahydro-1λ^6-thiopyran-4-carbonitrile 1-oxide] showed an IC50 [3] of 28.8 nM.
In the case of C[C@@H](Nc1ncnc2c1cc(C(=O)N1C3CCC1CN(C)C3)c(=O)n2C)c1cccc(C(F)F)c1F [Example 26-32], the IC50 ([3]; Homo sapiens, PC-9, 1 h) is reported as 216 nM.
With CC(=O)N1CCC(c2cc3c(N[C@H](C)c4cc(C(F)(F)F)cc(N)n4)ncnc3n(C)c2=O)CC1 [Example 44, 6-(1-acetyl-4-piperidyl)-4-[1-[6-amino-4-(trifluoromethyl)-2-pyridyl]ethylamino]-8-methyl-pyrido[2,3-d]pyrimidin-7-one] the IC50 ([3]; Homo sapiens, PC-9, 1 h) was 179 nM.
Compound CO[C@@]1(c2cc3c(N[C@H](C)c4cccc(C(F)F)c4F)ncnc3n(C)c2=O)CCN(C(C)=O)[C@@H](C)C1 [Example 32-30] has an IC50 ([3]; Homo sapiens, PC-9, 1 h) of 236 nM.
Compound COC1(c2cc3c(N[C@H](C)c4cccc(C(F)F)c4F)nc(C)nc3n(C)c2=O)CCN(C(C)=O)C1 (some centres unmarked) [Example 32-58] has an IC50 ([3]; Homo sapiens, PC-9, 1 h) of 13.3 nM.
With CO[C@]1(c2cc3c(N[C@H](C)c4cccc(C(F)F)c4F)ncnc3n(C)c2=O)CCN(C(C)=O)C(C)(C)C1 [Example 32-52] the IC50 ([3]; Homo sapiens, PC-9, 1 h) was 18.1 nM.
C[C@@H](Nc1ncnc2c1cc(C1=CCOCC1)c(=O)n2C)c1cccc(C(F)(F)F)c1 [Example 5, (R)-6-(3,6-dihydro-2H-pyran-4-yl)-8-methyl-4-((1-(3-(trifluoromethyl)phenyl)ethyl)amino)pyrido[2,3-d]pyrimidin-7(8H)-one] showed an IC50 ([3]; Homo sapiens, PC-9, 1 h) of 134 nM.
For C[C@@H](Nc1ncnc2c1cc(C1(F)CCS(=O)(=O)C1)c(=O)n2C)c1cccc(C(F)F)c1F (some centres unmarked) [Example 29-12], the IC50 [3] was 53.6 nM.
CO[C@]1(c2cc3c(N[C@H](C)c4cccc(C(F)F)c4F)ncnc3n(C)c2=O)C[C@H](N(C)C(C)=O)C1 [Example 32-41] was tested, and the IC50 ([3]; Homo sapiens, PC-9, 1 h) was 461 nM.
COC1(c2cc3c(N[C@H](C)c4cccc(C(F)F)c4F)ncnc3n(C)c2=O)CCS(=N)(=O)CC1 (single isomer, unassigned) [Example 49] showed an IC50 ([3]; Homo sapiens, PC-9, 1 h) of 75.5 nM.
In the case of C[C@@H](Nc1ncnc2c1cc(C1(C#N)CCP(C)(=O)CC1)c(=O)n2C)c1cccc(C(F)F)c1F (some centres unmarked) [Example 36-13], the IC50 [3] is reported as 81.2 nM.
For C[C@@H](Nc1ncnc2c1cc(C(=O)N1CCCC13CCOC3)c(=O)n2C)c1cccc(C(F)F)c1F (some centres unmarked) [Example 26-34], the IC50 ([3]; Homo sapiens, PC-9, 1 h) was 122 nM.
Compound CC(=O)N1CC(C#N)(c2cc3c(N[C@H](C)c4cccc(C(F)F)c4F)ncnc3n(C)c2=O)C1 [Example 36-3] has an IC50 ([3]; Homo sapiens, PC-9, 1 h) of 181 nM.
Compound COc1cccc(Cc2cc3c(N[C@H](C)c4cccc(C(F)F)c4F)nc(C)nc3n(C)c2=O)c1OC [Example 20] has an IC50 [2] greater than 20000 nM.
Compound COC1(c2cc3c(N[C@H](C)c4cccc(C(F)F)c4F)ncnc3n(C)c2=O)CCS(=O)(=O)C(C)C1 (some centres unmarked) [Example 32-66] has an IC50 [3] of 127 nM.
C[C@@H](Nc1ncnc2c1cc(C1(C#N)CCS(=O)(=O)C1)c(=O)n2C)c1cccc(C(F)F)c1F (some centres unmarked) [Example 36-15] was tested, and the IC50 [3] was 58.9 nM.
Work on C[C@@H](Nc1ncnc2c1cc(C1(O)CCN(C(=O)OC(C)(C)C)C1)c(=O)n2C)c1cccc(C(F)F)c1F (some centres unmarked) [Example 28-9] yielded an IC50 ([3]; Homo sapiens, PC-9, 1 h) of 369 nM.
With C[C@@H](Nc1ncnc2c1cc(C1(N)CCP(C)(=O)CC1)c(=O)n2C)c1cccc(C(F)F)c1F (some centres unmarked) [Example 31-11] the IC50 [3] was 575 nM.
CO[C@]1(c2cc3c(N[C@H](C)c4cccc(C(F)F)c4F)ncnc3n(C)c2=O)CCN(C(C)=O)C1 [Example 32-2] gave an IC50 ([3]; Homo sapiens, PC-9, 1 h) of 10 nM.
CC(=O)N1CCC(c2cc3c(N[C@H](C)c4cc(C(F)F)cc(C5(F)CNC5)c4)ncnc3n(C)c2=O)CC1 [Example 43, 6-(1-acetyl-4-piperidyl)-4-[[(1R)-1-[3-(difluoromethyl)-5-(3-fluoroazetidin-3-yl)phenyl]ethyl]amino]-8-methyl-pyrido[2,3-d]pyrimidin-7-one] gave an IC50 ([3]; Homo sapiens, PC-9, 1 h) greater than 7290 nM.
Compound C[C@@H](Nc1ncnc2c1cc(C(=O)N1CC3(CCCO3)C1)c(=O)n2C)c1cccc(C(F)F)c1F [Example 26-13] has an IC50 ([3]; Homo sapiens, PC-9, 1 h) of 1130 nM.
For C[C@@H](Nc1ncnc2c1cc(C(=O)N1CC(N3CC(C)(O)C3)C1)c(=O)n2C)c1cccc(C(F)F)c1F [Example 26-45], the IC50 ([3]; Homo sapiens, PC-9, 1 h) was 521 nM.
Work on [2H]C(=O)N1CCC(c2cc3c(N[C@H](C)c4cccc(C(F)F)c4F)ncnc3n(C)c2=O)CC1 [Example 33-25] yielded an IC50 ([3]; Homo sapiens, PC-9, 1 h) of 73.8 nM.
Work on C[C@@H](Nc1ncnc2c1cc(-c1ccccc1)c(=O)n2C)c1cccc(C(F)F)c1F [Example 21-13] yielded an IC50 ([3]; Homo sapiens, PC-9, 1 h) of 486 nM.
For C[C@@H](Nc1ncnc2c1cc(C(=O)N1CCN3CCOCC3C1)c(=O)n2C)c1cccc(C(F)F)c1F (some centres unmarked) [Example 26-44], the IC50 ([3]; Homo sapiens, PC-9, 1 h) was 401 nM.
With C[C@@H](Nc1ncnc2c1cc(C1=CC[P@@](C)(=O)CC1)c(=O)n2C)c1cccc(C(F)F)c1F [Example 1-33] the IC50 ([3]; Homo sapiens, PC-9, 1 h) was 201 nM.
C[C@@H](Nc1ncnc2c1cc(C(=O)N1CC3CC1CO3)c(=O)n2C)c1cccc(C(F)F)c1F (some centres unmarked) [Example 26-6] was tested, and the IC50 ([3]; Homo sapiens, PC-9, 1 h) was 8830 nM and the IC50 [2] was greater than 20000 nM.
With COC1(c2cc3c(N[C@H](C)c4cccc(C(F)F)c4F)nc(C)nc3n(C)c2=O)CCN(C(C)=O)CC1 [Example 32-32] the IC50 ([3]; Homo sapiens, PC-9, 1 h) was 9.79 nM and the IC50 [2] was 4.77 nM.
For C[C@@H](Nc1ncnc2c1cc(C1(C#N)CCP(C)(=O)CC1)c(=O)n2C)c1cccc(C(F)F)c1F (some centres unmarked) [Example 36-12], the IC50 [3] was 448 nM.
C[C@@H](Nc1ncnc2c1cc(-c1ccncc1)c(=O)n2C)c1cccc(C(F)F)c1F [Example 21-14] was tested, and the IC50 ([3]; Homo sapiens, PC-9, 1 h) was 119 nM.
CO[C@]1(c2cc3c(N[C@H](C)c4cccc(C(F)F)c4F)ncnc3n(C)c2=O)CCN(S(C)(=O)=O)C1 [Example 32-16] showed an IC50 ([3]; Homo sapiens, PC-9, 1 h) of 268 nM.
